Measured values: patent US12365650B2, “Deuterated organic compounds and uses thereof” (ENGRAIL THERAPEUTICS, INC., priority 2023, dated 2025)
Marks after values point to notes of the source that are not given here.

What was measured:
5-HT2A receptor [1] = molecular target: T1, 5-HT2A receptor (Homo sapiens, UniProt P28223); format: binding
human 5-HT1A receptor = molecular target: T2, human 5-HT1A receptor (Homo sapiens, UniProt P08908); test: cAMP HTRF functional assay, 5-HT1A agonist mode; format: cell-based; conditions: for 5-HT1A functional character: agonist mode, summary of Tables 4-5; for Top % Activation at maximal concentration, 5-HT1A (agonist mode): cAMP, % of reference agonist activity at its EC100
T2 sequence (P08908 1-422): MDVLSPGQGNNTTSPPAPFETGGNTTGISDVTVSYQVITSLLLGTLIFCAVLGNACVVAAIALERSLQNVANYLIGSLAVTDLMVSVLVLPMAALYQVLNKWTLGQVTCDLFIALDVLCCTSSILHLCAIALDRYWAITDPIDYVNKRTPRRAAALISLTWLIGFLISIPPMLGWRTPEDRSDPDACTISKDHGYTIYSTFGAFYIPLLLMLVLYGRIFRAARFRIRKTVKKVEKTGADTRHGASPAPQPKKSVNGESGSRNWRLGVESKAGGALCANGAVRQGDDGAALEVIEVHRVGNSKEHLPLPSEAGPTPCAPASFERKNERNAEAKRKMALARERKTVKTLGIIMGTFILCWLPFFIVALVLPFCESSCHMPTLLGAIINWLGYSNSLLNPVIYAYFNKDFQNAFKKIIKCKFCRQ
Description: (§1) Example 4—Agonist or Antagonist Activity on Recombinant Human Dopamine and Serotonin Receptors Using IPOne HTRF and cAMP HTRF Assays
(§2) IP-One and cAMP HTRF assays are conducted with recombinant cell lines.
(§3) Agonist activity of test compounds is expressed as a percentage of the activity of the reference agonist at its EC100 concentration. Antagonist activity of the test compound is expressed as a percentage of the inhibition of reference agonist activity at its EC80 concentration.

5-HT2A receptor [2] = molecular target: T1, 5-HT2A receptor; test: IP-One HTRF functional assay, 5-HT2A agonist mode; format: cell-based; set-up: expressed in transfected cells; conditions: % of reference agonist activity at its EC100
Description: as §1, §2, §3

T1 sequence (P28223 whole entry): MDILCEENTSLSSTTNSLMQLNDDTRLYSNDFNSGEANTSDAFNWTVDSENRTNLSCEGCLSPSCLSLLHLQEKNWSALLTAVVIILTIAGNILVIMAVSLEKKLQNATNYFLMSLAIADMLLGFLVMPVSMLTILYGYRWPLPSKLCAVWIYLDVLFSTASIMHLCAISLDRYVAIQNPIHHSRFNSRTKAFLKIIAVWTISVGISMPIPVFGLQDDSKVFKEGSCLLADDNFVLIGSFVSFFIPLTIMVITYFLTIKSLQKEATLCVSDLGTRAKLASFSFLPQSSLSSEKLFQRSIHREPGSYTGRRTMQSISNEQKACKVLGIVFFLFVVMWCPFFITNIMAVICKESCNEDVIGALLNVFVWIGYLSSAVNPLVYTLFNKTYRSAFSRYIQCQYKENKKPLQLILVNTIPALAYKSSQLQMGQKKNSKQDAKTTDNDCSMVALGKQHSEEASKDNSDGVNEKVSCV

Row | 5-HT1A functional character (human 5-HT1A receptor) | Top % Activation at maximal concentration, 5-HT1A (agonist mode) (human 5-HT1A receptor) | Top % Activation at maximal concentration, 5-HT2A (agonist mode) (5-HT2A receptor [2]) | SMILES | binding to the 5-HT2A receptor in vitro (5-HT2A receptor [1])
1 |  |  |  | CCN1CCC[C@@H]1CNC(=O)c1c(OC)ccc(Br)c1OC [R-remoxipride] | do not even bind
2 | 5-HT1A partial agonist | 59% | 94% | [2H]C([2H])([2H])Oc1cc(NC)c(Cl)cc1C(=O)N[C@@H]1CCN(Cc2ccccc2)[C@@H]1C [Ex. 2 (18), 5-Chloro-N-((2R,3R)-1-((phenyl)methyl)-2-methylpyrrolidin-3-yl)-2-trideuteromethoxy-4-(methylamino)benzamide] | 
3 |  |  |  | CCN1CCC[C@H]1CNC(=O)c1c(OC)ccc(Br)c1OC [S-remoxipride] | do not even bind
4 | strong 5-HT1A agonist | 71^d % | 84^d % | [2H]c1c([2H])c([2H])c(CN2CC[C@@H](NC(=O)c3cc(Cl)c(NC)cc3OC)[C@H]2C)c([2H])c1[2H] [Ex. 1 (10), 5-Chloro-N-((2R,3R)-1-((pentadeuterophenyl)methyl)-2-methylpyrrolidin-3-yl)-2-methoxy-4-(methylamino)benzamide] | 
